Earlier results as cited in US10638758B2, “Heterocycle-containing amino acid compound and use thereof” (AICHI STEEL CORPORATION, priority 2015, dated 2020).

Tested on: rice
Settings: alkaline conditions; Non-Patent Document 2

O=C(O)[C@@H](NCC[C@H](O)C(=O)O)[C@@H](O)CN1CC[C@H]1C(=O)O [mugineic acid]
effect on the growth of graminaceous plants: dramatic effect
